According to ChEMBL document CHEMBL6182831, “Thiazole-fused androstenone and ethisterone derivatives: potent β- and γ-actin cytoskeleton inhibitors to treat melanoma tumors” (RSC Med Chem, 2025):

Legend:
Assay type in all cases: functional
LOX IMVI = assay: Cytotoxicity against human LOX IMVI cells assessed as inhibition of cell growth incubated for 24 hrs by resazurin staining based analysis
SK-MEL-5 = assay: Cytotoxicity against human SK-MEL-5 cells assessed as inhibition of cell growth incubated for 24 hrs by resazurin staining based analysis; conditions: SK-MEL-5, 24 h
SK-MEL-25 = assay: Cytotoxicity against human SK-MEL-25 cells assessed as inhibition of cell growth incubated for 24 hrs by resazurin staining based analysis; conditions: SK-MEL-25, 24 h
SK-MEL-28 = assay: Cytotoxicity against human SK-MEL-28 cells assessed as inhibition of cell growth incubated for 24 hrs by resazurin staining based analysis; conditions: SK-MEL-28, 24 h
B16-F10 = assay: Cytotoxicity against mouse B16-F10 cells assessed as inhibition of cell growth incubated for 24 hrs by resazurin staining based analysis; conditions: B16-F10, 24 h

| Structure (SMILES) | IC50 (LOX IMVI) [µM] | IC50 (SK-MEL-5) [µM] | IC50 (SK-MEL-25) [µM] | IC50 (SK-MEL-28) [µM] | IC50 (B16-F10) [µM] |
| --- | --- | --- | --- | --- | --- |
| C#C[C@]1(O)CC[C@H]2[C@@H]3CC=C4c5sc(Nc6cccc(C)n6)nc5CC[C@]4(C)[C@H]3CC[C@@]21C | 2.8 | 3.9 | 5.1 | 3 | 6.5 |
| COc1ccc(Cl)cc1Nc1nc2c(s1)C1=CC[C@@H]3[C@H](CC[C@]4(C)C(=O)CC[C@@H]34)[C@@]1(C)CC2 | 3 | > 20 | > 20 | 4.8 | 3.6 |
| C#C[C@]1(O)CC[C@H]2[C@@H]3CC=C4c5sc(-c6ccc(F)cc6)nc5CC[C@]4(C)[C@H]3CC[C@@]21C | 15.6 | > 20 | > 20 | > 20 | 13.9 |
| C#C[C@]1(O)CC[C@H]2[C@@H]3CC=C4c5sc(-c6ccc(O)cc6)nc5CC[C@]4(C)[C@H]3CC[C@@]21C | 3.3 | 3.2 | 3.7 | 2.5 | 4.7 |
| C#C[C@]1(O)CC[C@H]2[C@@H]3CC=C4c5sc(-c6cccc(F)c6)nc5CC[C@]4(C)[C@H]3CC[C@@]21C | 15.3 | 20 | > 20 | 14 | 8.5 |
| C#C[C@]1(O)CC[C@H]2[C@@H]3CC=C4c5sc(Nc6cc(OC)ccc6Cl)nc5CC[C@]4(C)[C@H]3CC[C@@]21C | 3.2 | 4.8 | 3.1 | 3.4 | 9.7 |
| C[C@]12CCc3nc(Nc4ccc(F)cc4)sc3C1=CC[C@@H]1[C@@H]2CC[C@]2(C)C(=O)CC[C@@H]12 | 1.8 | 6.4 | 1.4 | 3.4 | 4.5 |
| C#C[C@]1(O)CC[C@H]2[C@@H]3CC=C4c5sc(Nc6ccc(OC)cc6OC)nc5CC[C@]4(C)[C@H]3CC[C@@]21C | 3.4 | 3 | 3.3 | 4.7 | 7.7 |
| C#C[C@]1(O)CC[C@H]2[C@@H]3CC=C4c5sc(Nc6cccc(Cl)n6)nc5CC[C@]4(C)[C@H]3CC[C@@]21C | 5.5 | 2.7 | 5.7 | 2.4 | 3.8 |
| C[C@]12CCc3nc(Nc4cccc(O)c4)sc3C1=CC[C@@H]1[C@@H]2CC[C@]2(C)C(=O)CC[C@@H]12 | 2.2 | > 20 | 4.8 | 12.6 | 6.7 |
| C#C[C@]1(O)CC[C@H]2[C@@H]3CC=C4c5sc(Nc6ccc(C)cn6)nc5CC[C@]4(C)[C@H]3CC[C@@]21C | 3.6 | 3.7 | 4.8 | 4.6 | 7.7 |
| C#C[C@]1(O)CC[C@H]2[C@@H]3CC=C4c5sc(-c6cccc(O)c6)nc5CC[C@]4(C)[C@H]3CC[C@@]21C | 4.1 | 3.5 | 6.6 | 6 | 2.9 |
| C[C@]12CCc3nc(NCCc4ccccc4)sc3C1=CC[C@@H]1[C@@H]2CC[C@]2(C)C(=O)CC[C@@H]12 | 9 | 5.2 | > 20 | 5.4 | 6.1 |
| C#C[C@]1(O)CC[C@H]2[C@@H]3CC=C4c5sc(Nc6cccnc6)nc5CC[C@]4(C)[C@H]3CC[C@@]21C | 2.6 | 3 | 2.1 | 2.3 | 10.7 |
| C#C[C@]1(O)CC[C@H]2[C@@H]3CC=C4c5sc(Nc6cc(C)cc(C)c6)nc5CC[C@]4(C)[C@H]3CC[C@@]21C | 3.6 | 3.9 | 3.8 | 5 | 5.8 |
| C[C@]12CCc3nc(Nc4ncccn4)sc3C1=CC[C@@H]1[C@@H]2CC[C@]2(C)C(=O)CC[C@@H]12 | > 20 | 1.3 | 1.8 | > 20 | 3 |
| C#C[C@]1(O)CC[C@H]2[C@@H]3CC=C4c5sc(Nc6ccc(Cl)cn6)nc5CC[C@]4(C)[C@H]3CC[C@@]21C | 5.4 | 4.8 | 8.3 | 3.7 | 3 |
| C#C[C@]1(O)CC[C@H]2[C@@H]3CC=C4c5sc(-c6ccc7c(c6)OCO7)nc5CC[C@]4(C)[C@H]3CC[C@@]21C | > 20 | 4.9 | 4.2 | 6.1 | 13 |
| Cc1cc(C)cc(Nc2nc3c(s2)C2=CC[C@@H]4[C@H](CC[C@]5(C)C(=O)CC[C@@H]45)[C@@]2(C)CC3)c1 | 2.5 | > 20 | 3.2 | 2.5 | 8 |

| Structure (SMILES) | IC50 (LOX IMVI) [µM] | IC50 (SK-MEL-5) [µM] | IC50 (SK-MEL-25) [µM] | IC50 (SK-MEL-28) [µM] | IC50 (B16-F10) [µM] |
| --- | --- | --- | --- | --- | --- |
| C#C[C@]1(O)CC[C@H]2[C@@H]3CC=C4c5sc(Nc6cc(C)cc(C)n6)nc5CC[C@]4(C)[C@H]3CC[C@@]21C | 4.1 | 2.5 | 6.5 | 5.5 | 10.2 |
| C[C@]12CCc3nc(Nc4cccc(F)c4)sc3C1=CC[C@@H]1[C@@H]2CC[C@]2(C)C(=O)CC[C@@H]12 | 1.6 | 6.7 | 4.2 | 4.5 | 2.7 |
| C[C@]12CCc3nc(Nc4ccccc4F)sc3C1=CC[C@@H]1[C@@H]2CC[C@]2(C)C(=O)CC[C@@H]12 | 6.7 | > 20 | > 20 | 6.4 | 5.4 |
| C#C[C@]1(O)CC[C@H]2[C@@H]3CC=C4c5sc(Nc6ccc(F)cn6)nc5CC[C@]4(C)[C@H]3CC[C@@]21C | 5.4 | 2.8 | 3.2 | 3.5 | 3.1 |
| COc1ccc(OC)c(Nc2nc3c(s2)C2=CC[C@@H]4[C@H](CC[C@]5(C)C(=O)CC[C@@H]45)[C@@]2(C)CC3)c1 | 6.2 | > 20 | > 20 | > 20 | 6.4 |
| Cc1ccc(Nc2nc3c(s2)C2=CC[C@@H]4[C@H](CC[C@]5(C)C(=O)CC[C@@H]45)[C@@]2(C)CC3)c(C)c1 | 3.6 | 6.6 | 4.4 | 1.9 | 6.1 |
| C#C[C@]1(O)CC[C@H]2[C@@H]3CC=C4c5sc(N6CCN(C)CC6)nc5CC[C@]4(C)[C@H]3CC[C@@]21C | 7.4 | 2.6 | 2.8 | 2 | 2.8 |
| C#C[C@]1(O)CC[C@H]2[C@@H]3CC=C4c5sc(Nc6cc(OC)ccc6OC)nc5CC[C@]4(C)[C@H]3CC[C@@]21C | 2.4 | 3.5 | 3.4 | 5 | 7.2 |
| C#C[C@]1(O)CC[C@H]2[C@@H]3CC=C4c5sc(Nc6ccccn6)nc5CC[C@]4(C)[C@H]3CC[C@@]21C | 7.5 | 2.6 | 4 | 3.4 | 7.6 |
| C#C[C@]1(O)CC[C@H]2[C@@H]3CC=C4c5sc(Nc6ccncc6)nc5CC[C@]4(C)[C@H]3CC[C@@]21C | 2.5 | 2.9 | 7.9 | 4.2 | 6.7 |
| C[C@]12CCc3nc(Nc4ccccc4)sc3C1=CC[C@@H]1[C@@H]2CC[C@]2(C)C(=O)CC[C@@H]12 | 2.7 | 10.6 | 6.8 | 6.1 | 5.8 |
| C#C[C@]1(O)CC[C@H]2[C@@H]3CC=C4c5sc(Nc6cc(Cl)ccn6)nc5CC[C@]4(C)[C@H]3CC[C@@]21C | 3 | 3.6 | 4.4 | 2.8 | 3.8 |
| C#C[C@]1(O)CC[C@H]2[C@@H]3CC=C4c5sc(Nc6ccc(C)c(Cl)c6)nc5CC[C@]4(C)[C@H]3CC[C@@]21C | 3.9 | 4.3 | 4.6 | 5.6 | 4.9 |
| C[C@]12CCc3nc(Nc4ccc(F)cc4F)sc3C1=CC[C@@H]1[C@@H]2CC[C@]2(C)C(=O)CC[C@@H]12 | 2.8 | 11.5 | > 20 | 5.3 | 5.5 |
| C#C[C@]1(O)CC[C@H]2[C@@H]3CC=C4c5sc(Nc6ncccn6)nc5CC[C@]4(C)[C@H]3CC[C@@]21C | 7.8 | 4.9 | 5.7 | 2.8 | 13.5 |
| Cc1ccc(Nc2nc3c(s2)C2=CC[C@@H]4[C@H](CC[C@]5(C)C(=O)CC[C@@H]45)[C@@]2(C)CC3)cc1 | 4.2 | 7.3 | 4.3 | 4 | 4.9 |
| C[C@]12CCc3nc(Nc4ccccn4)sc3C1=CC[C@@H]1[C@@H]2CC[C@]2(C)C(=O)CC[C@@H]12 | 2.3 | 7.1 | 11.8 | 8.9 | 5.9 |
| C#C[C@]1(O)CC[C@H]2[C@@H]3CC=C4c5sc(Nc6ncccc6C)nc5CC[C@]4(C)[C@H]3CC[C@@]21C | 4.8 | 5.5 | > 20 | 2.4 | 2.9 |
| C[C@]12CCc3nc(Nc4ccc(OC(F)(F)F)cc4)sc3C1=CC[C@@H]1[C@@H]2CC[C@]2(C)C(=O)CC[C@@H]12 | 9.3 | > 20 | 12.5 | > 20 | 11.7 |
